The results in this text go back to patent US7439017B2, “Assays for measuring nucleic acid binding proteins and enzyme activities” (BioVeris Corporation, priority 1998, dated 2008).

This assay concerns DNA substrate containing the NFkβ consensus sequence. The assay is described as follows: DNase protection assay for DNA-protein interactions (ECL). The format is binding. As to the method:
This example illustrates the use of the invention to measure protein-DNA interactions, specifically, the binding of the transcription factor NFkβ with its consensus DNA sequence. A schematic depicting the assay format can be found in the detailed description of the invention. DNAse 1 and NFkβ were purchased from Promega Corp. A DNA substrate containing a consensus DNA sequence for NFk was prepared by Midland Certified Reagent Co. by solid phase synthesis. The sequence of the substrate is shown below. The nucleotides shown in brackets were linked by phosphorothioate linkages; the other linkages were standard phosphodiester bonds. […]
The labeled DNA substrate (50 fmol), poly dI-dC (1 ug, to reduce non-specific protein-DNA interactions) and varying amounts of recombinant NFkβ (p50 subunit) were combined in a 20 uL volume and incubated for 30 min. at room temperature. […] The reaction mixture was introduced into an ORIGEN Analyzer (IGEN International) running in Magnetic Capture Mode and the ECL signal from RuBpy on the magnetic beads was determined in the presence of a solution containing tripropylamine (ORIGEN Assay Buffer, IGEN International). […]
The specificity of the assay was determined by replacing the specific binding protein NFkβ with other DNA binding proteins specific for sequences not present on the DNA substrate (the phosphorothioate containing substrate was used).

“AP-2: DNA binding protein specific for sequences not present on the DNA substrate”: the “nuclease protection of the DNA substrate containing the NFkβ consensus sequence” value (in words) is on record as “no ability to protect against nuclease attack”. The “ECL Signal” value (specificity test, DNase added, phosphorothioate containing NFkβ consensus substrate) worked out at 32289.
